{"source": "BigSolDB 2.1"}
{"smiles": "CO[C@H]1C[C@@H]2CC[C@@H](C)[C@@](O)(O2)C(=O)C(=O)N2CCCC[C@H]2C(=O)O[C@H]([C@H](C)C[C@@H]2CC[C@@H](O)[C@H](OC)C2)CC(=O)[C@H](C)/C=C(\\C)[C@@H](O)[C@@H](OC)C(=O)[C@H](C)C[C@H](C)/C=C/C=C/C=C/1C", "values": [{"measurement": "solubility (mole fraction)", "setting": "in acetone, 295 K", "result": 0.00316}, {"measurement": "solubility (mole fraction)", "setting": "in acetone, 300 K", "result": 0.00321}, {"measurement": "solubility (mole fraction)", "setting": "in acetone, 305 K", "result": 0.00343}, {"measurement": "solubility (mole fraction)", "setting": "in acetone, 310 K", "result": 0.00388}, {"measurement": "solubility (mole fraction)", "setting": "in acetone, 315 K", "result": 0.00433}, {"measurement": "solubility (mole fraction)", "setting": "in acetone, 320 K", "result": 0.0047}, {"measurement": "solubility (mole fraction)", "setting": "in acetone, 325 K", "result": 0.00487}, {"measurement": "solubility (mole fraction)", "setting": "in acetone, 330 K", "result": 0.00511}, {"measurement": "solubility (mole fraction)", "setting": "in acetone, 335 K", "result": 0.00545}, {"measurement": "solubility (mole fraction)", "setting": "in acetone, 340 K", "result": 0.00627}, {"measurement": "solubility (mole fraction)", "setting": "in acetone, 345 K", "result": 0.00721}, {"measurement": "solubility (mole fraction)", "setting": "in chloroform, 295 K", "result": 0.00272}, {"measurement": "solubility (mole fraction)", "setting": "in chloroform, 300 K", "result": 0.00289}, {"measurement": "solubility (mole fraction)", "setting": "in chloroform, 305 K", "result": 0.00311}, {"measurement": "solubility (mole fraction)", "setting": "in chloroform, 310 K", "result": 0.00325}, {"measurement": "solubility (mole fraction)", "setting": "in chloroform, 315 K", "result": 0.00346}, {"measurement": "solubility (mole fraction)", "setting": "in chloroform, 320 K", "result": 0.00369}, {"measurement": "solubility (mole fraction)", "setting": "in chloroform, 325 K", "result": 0.00386}, {"measurement": "solubility (mole fraction)", "setting": "in chloroform, 330 K", "result": 0.00413}, {"measurement": "solubility (mole fraction)", "setting": "in chloroform, 335 K", "result": 0.00437}, {"measurement": "solubility (mole fraction)", "setting": "in chloroform, 340 K", "result": 0.00458}, {"measurement": "solubility (mole fraction)", "setting": "in chloroform, 345 K", "result": 0.00495}, {"measurement": "solubility (mole fraction)", "setting": "in dichloromethane, 295 K", "result": 0.0019}, {"measurement": "solubility (mole fraction)", "setting": "in dichloromethane, 300 K", "result": 0.00201}, {"measurement": "solubility (mole fraction)", "setting": "in dichloromethane, 305 K", "result": 0.0022}, {"measurement": "solubility (mole fraction)", "setting": "in dichloromethane, 310 K", "result": 0.00246}, {"measurement": "solubility (mole fraction)", "setting": "in dichloromethane, 315 K", "result": 0.00271}, {"measurement": "solubility (mole fraction)", "setting": "in dichloromethane, 320 K", "result": 0.00279}, {"measurement": "solubility (mole fraction)", "setting": "in dichloromethane, 325 K", "result": 0.00306}, {"measurement": "solubility (mole fraction)", "setting": "in dichloromethane, 330 K", "result": 0.00333}, {"measurement": "solubility (mole fraction)", "setting": "in dichloromethane, 335 K", "result": 0.00351}, {"measurement": "solubility (mole fraction)", "setting": "in dichloromethane, 340 K", "result": 0.00397}, {"measurement": "solubility (mole fraction)", "setting": "in dichloromethane, 345 K", "result": 0.00433}, {"measurement": "solubility (mole fraction)", "setting": "in ethanol, 295 K", "result": 0.00137}, {"measurement": "solubility (mole fraction)", "setting": "in ethanol, 300 K", "result": 0.00143}, {"measurement": "solubility (mole fraction)", "setting": "in ethanol, 305 K", "result": 0.00163}, {"measurement": "solubility (mole fraction)", "setting": "in ethanol, 310 K", "result": 0.00184}, {"measurement": "solubility (mole fraction)", "setting": "in ethanol, 315 K", "result": 0.00197}, {"measurement": "solubility (mole fraction)", "setting": "in ethanol, 320 K", "result": 0.0021}, {"measurement": "solubility (mole fraction)", "setting": "in ethanol, 325 K", "result": 0.00237}, {"measurement": "solubility (mole fraction)", "setting": "in ethanol, 330 K", "result": 0.00259}, {"measurement": "solubility (mole fraction)", "setting": "in ethanol, 335 K", "result": 0.00275}, {"measurement": "solubility (mole fraction)", "setting": "in ethanol, 340 K", "result": 0.00291}, {"measurement": "solubility (mole fraction)", "setting": "in ethanol, 345 K", "result": 0.00317}, {"measurement": "solubility (mole fraction)", "setting": "in methanol, 295 K", "result": 0.00072}, {"measurement": "solubility (mole fraction)", "setting": "in methanol, 300 K", "result": 0.00088}, {"measurement": "solubility (mole fraction)", "setting": "in methanol, 305 K", "result": 0.00107}, {"measurement": "solubility (mole fraction)", "setting": "in methanol, 310 K", "result": 0.00123}, {"measurement": "solubility (mole fraction)", "setting": "in methanol, 315 K", "result": 0.00143}, {"measurement": "solubility (mole fraction)", "setting": "in methanol, 320 K", "result": 0.00146}, {"measurement": "solubility (mole fraction)", "setting": "in methanol, 325 K", "result": 0.00163}, {"measurement": "solubility (mole fraction)", "setting": "in methanol, 330 K", "result": 0.00171}, {"measurement": "solubility (mole fraction)", "setting": "in methanol, 335 K", "result": 0.00183}, {"measurement": "solubility (mole fraction)", "setting": "in methanol, 340 K", "result": 0.00188}, {"measurement": "solubility (mole fraction)", "setting": "in methanol, 345 K", "result": 0.00205}]}
